Laboratory results reported in patent publication US20260158009A1 (GENZYME CORPORATION, priority 2023, published 2026).

Assays:
U937 cells = test: Cellular assay in U937 cells: activity of RIPK1 inhibitors on TNFα/zVAD.fmk-induced cell death (necroptosis), CellTiter 96 AQueous (MTS) readout; assay type: cell-based; conditions: Homo sapiens, U-937
In short: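 Necroptosis was measured by viable-cell MTS reduction (4 h, absorbance 490 nm) after overnight (18–24 h) 37° C culture. Cell suspensions of U937 cells carried TNFα (100 ng/ml) plus zVAD.fmk (50 μM) before compound was added. A 10-point curve (10 μM–0.26 nM or 1 μM–0.07 nM) was run in duplicate, normalised to the control lacking TNFα/zVAD.fmk.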

[1] = biological target: T1, hRIPK1 (aa 1-375) fusion protein (Homo sapiens, UniProt Q13546); test: ADP-Glo kinase assay: catalytic activity of RIPK1 (autophosphorylation, conversion of ATP to ADP); assay type: biochemical
T1 construct: hRIPK1 (aa 1-375) fusion protein
T1 sequence (Q13546 1-375): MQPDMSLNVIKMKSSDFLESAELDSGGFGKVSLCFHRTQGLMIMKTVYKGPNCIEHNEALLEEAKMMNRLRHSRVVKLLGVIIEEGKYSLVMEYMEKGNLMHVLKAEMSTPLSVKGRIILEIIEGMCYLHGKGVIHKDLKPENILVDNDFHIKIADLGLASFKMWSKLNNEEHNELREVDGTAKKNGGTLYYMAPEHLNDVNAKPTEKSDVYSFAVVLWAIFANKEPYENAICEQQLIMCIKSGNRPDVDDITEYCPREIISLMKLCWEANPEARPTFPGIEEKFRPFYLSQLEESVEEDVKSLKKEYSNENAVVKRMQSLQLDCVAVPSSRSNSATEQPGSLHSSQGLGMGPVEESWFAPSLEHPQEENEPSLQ
In short: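 hRIPK1 (aa 1-375) fusion protein (3.6 μg/ml final) was preincubated 30 min at rt with compound (33300-1.69 nM, 1% DMSO), then 50 μM ATP was added for 240 min at rt. ADP from autophosphorylation was measured by ADP-Glo luminescence and curves fitted by nonlinear regression.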

Row | Compound | IC50 (U937 cells) [nM] | IC50 [1] [nM]
1 | Cc1nc2ccc(C[C@H]3CC[C@H](C(=O)N4OCC[C@H]4c4ccc(F)c(F)c4)CC3)nn2n1 [compound 310, trans-[(3S)-3-(3,4-difluorophenyl)isoxazolidin-2-yl]-[4-[(2-methyl-[1,2,4]triazolo[1,5-b]pyridazin-6-yl)methyl]cyclohexyl]methanone] | 22 | 12
2 | O=C([C@H]1CC[C@H](Cn2ccc3cc(F)ccc32)CC1)N1OCC[C@H]1c1cc(F)cc(F)c1 [compound 96, trans-((S)-3-(3,5-difluorophenyl)isoxazolidin-2-yl)(4-((5-fluoro-1H-indol-1-yl)methyl)cyclohexyl)methanone] | 2 | 16
3 | N#Cc1cncc([C@@H]2CCON2C(=O)[C@H]2CC[C@H](Cc3cc(F)cc(CO)c3)CC2)c1 [compound 257, trans-5-[(3S)-2-[4-[[3-fluoro-5-(hydroxymethyl)phenyl]methyl]cyclohexanecarbonyl]isoxazolidin-3-yl]pyridine-3-carbonitrile] | 2 | 10
4 | Cn1cc(C[C@H]2CC[C@H](C(=O)N3OCC[C@H]3c3cc(F)cc(C#N)c3)CC2)nn1 [Compound 258, trans-3-fluoro-5-[(3S)-2-[4-[(1-methyltriazol-4-yl)methyl]cyclohexanecarbonyl]isoxazolidin-3-yl]benzonitrile] | 862 | 71
5 | N#Cc1cc(F)cc([C@@H]2CCON2C(=O)[C@H]2CC[C@H](Cn3ccc4nc(C#N)ccc43)CC2)c1 [compound 99, trans-1-[[4-[(3S)-3-(3-cyano-5-fluoro-phenyl)isoxazolidine-2-carbonyl]cyclohexyl]methyl]pyrrolo[3,2-b]pyridine-5-carbonitrile] | 33 | 37
6 | Cc1cc2nnc(C)n2cc1C[C@H]1CC[C@H](C(=O)N2OCC[C@H]2c2ccc(F)c(F)c2)CC1 [compound 318, [(3S)-3-(3,4-difluorophenyl)isoxazolidin-2-yl]-[4-[(3,7-dimethyl-[1,2,4]triazolo[4,3-a]pyridin-6-yl)methyl]cyclohexyl]methanone] | 27 | 22
7 | Cc1nnc2c(F)cc(C[C@H]3CC[C@H](C(=O)N4OCC[C@H]4c4ccc(F)cc4)CC3)cn12 [compound 320, trans-[4-[(8-fluoro-3-methyl-[1,2,4]triazolo[4,3-a]pyridin-6-yl)methyl]cyclohexyl]-[(3S)-3-(4-fluorophenyl)isoxazolidin-2-yl]methanone] | 28 | 37
8 | Cc1cn2cc(C[C@H]3CC[C@H](C(=O)N4OCC[C@H]4c4cnccn4)CC3)cc(F)c2n1 [compound 350, trans-[4-(8-Fluoro-2-methyl-imidazo[1,2-a]pyridin-6-ylmethyl)-cyclohexyl]-((S)-3-pyrazin-2-yl-isoxazolidin-2-yl)-methanone] | 34 | 63
9 | N#Cc1cnc2ccn(C[C@H]3CC[C@H](C(=O)N4OCC[C@H]4c4cc(F)cc(F)c4)CC3)c2c1 [compound 17, trans-1-((4-((S)-3-(3,5-difluorophenyl)isoxazolidine-2-carbonyl)cyclohexyl)methyl)-1H-pyrrolo[3,2-b]pyridine-6-carbonitrile] | 2 | 21
10 | O=C([C@H]1CC[C@H](Cc2cc(F)cc(CO)c2)CC1)N1OCC[C@H]1c1cnccn1 [compound 259, trans-[4-[[3-fluoro-5-(hydroxymethyl)phenyl]methyl]cyclohexyl]-[(3S)-3-pyrazin-2-ylisoxazolidin-2-yl]methanone] | 2 | 8
11 | N#Cc1cc(F)cc([C@@H]2CCON2C(=O)[C@H]2CC[C@H](Cn3ncc4cc(F)ccc43)CC2)c1 [compound 54, trans-3-fluoro-5-((S)-2-(4-((5-fluoro-1H-indazol-1-yl)methyl)cyclohexane-1-carbonyl)isoxazolidin-3-yl)benzonitrile] | 6 | 21
12 | Cc1nc2c(C)cc(C[C@H]3CC[C@H](C(=O)N4OCC[C@H]4c4cncc(F)c4)CC3)cn2n1 [compound 331, trans-[4-[(2,8-dimethyl-[1,2,4]triazolo[1,5-a]pyridin-6-yl)methyl]cyclohexyl]-[(3S)-3-(5-fluoropyridin-3-yl)-1,2-oxazolidin-2-yl]methanone] | 20 | 15
13 | Cc1ccc([C@@H]2CCON2C(=O)[C@H]2CC[C@H](Cc3cc(C)ncc3C)CC2)cn1 [compound 354, trans-[4-(2,5-Dimethyl-pyridin-4-ylmethyl)-cyclohexyl]-[(S)-3-(6-methyl-pyridin-3-yl)-isoxazolidin-2-yl]-methanone] | 27 | 33
14 | Cc1ccc(C[C@H]2CC[C@H](C(=O)N3OCC[C@H]3c3cc(F)cc(C#N)c3)CC2)cc1C(N)=O [compound 133, trans-5-[[4-[(3S)-3-(3-cyano-5-fluoro-phenyl)isoxazolidine-2-carbonyl]cyclohexyl]methyl]-2-methyl-benzamide] | 8 | 8
15 | Cc1cc(C[C@H]2CC[C@H](C(=O)N3OCC[C@H]3c3coc(C)n3)CC2)c(C)cn1 [compound 377, trans-[4-[(2,5-dimethylpyridin-4-yl)methyl]cyclohexyl]-[(3S)-3-(2-methyl-1,3-oxazol-4-yl)-1,2-oxazolidin-2-yl]methanone] | 36 | 35
16 | Cc1nc2c(C)cc(C[C@H]3CC[C@H](C(=O)N4OCC[C@H]4c4cnccn4)CC3)cn2n1 [compound 326, trans-[4-[(2,8-dimethyl-[1,2,4]triazolo[1,5-a]pyridin-6-yl)methyl]cyclohexyl]-[(3S)-3-pyrazin-2-ylisoxazolidin-2-yl]methanone] | 59 | 51
17 | N#Cc1cc(F)cc([C@@H]2CCON2C(=O)[C@H]2CC[C@H](Cn3cnc4cc(C(N)=O)c(F)cc43)CC2)c1 [compound 74, trans-1-((4-((S)-3-(3-cyano-5-fluorophenyl)isoxazolidine-2-carbonyl)cyclohexyl)methyl)-6-fluoro-1H-benzo[d]imidazole-5-carboxamide] | 106 | 28
18 | Cc1nccn1-c1cc(F)cc(C[C@H]2CC[C@H](C(=O)N3OCC[C@H]3c3ccc(F)cc3)CC2)c1 [compound 207, trans-[4-[[3-fluoro-5-(2-methylimidazol-1-yl)phenyl]methyl]cyclohexyl]-[(3S)-3-(4-fluorophenyl)isoxazolidin-2-yl]methanone] | 53 | 23
19 | Cn1nccc1C[C@H]1CC[C@H](C(=O)N2OCC[C@H]2c2cnccn2)CC1 [compound 238, trans-[4-[(2-methylpyrazol-3-yl)methyl]cyclohexyl]-[(3S)-3-pyrazin-2-ylisoxazolidin-2-yl]methanone] | 257 | 41
20 | Cc1ncc(C[C@H]2CC[C@H](C(=O)N3OCC[C@H]3c3cnccn3)CC2)cn1 [compound 346, trans-[4-[(2-methylpyrimidin-5-yl)methyl]cyclohexyl]-[(3S)-3-pyrazin-2-yl-1,2-oxazolidin-2-yl]methanone] | 70 | 83
21 | N#Cc1cc(F)cc([C@@H]2CCON2C(=O)[C@H]2CC[C@H](Cc3ccc(F)c(C(N)=O)c3)CC2)c1 [compound 195, trans-5-[[4-[(3S)-3-(3-cyano-5-fluoro-phenyl)isoxazolidine-2-carbonyl]cyclohexyl]methyl]-2-fluoro-benzamide] | 6 | 12
22 | N#Cc1cc(F)cc([C@@H]2CCON2C(=O)[C@H]2CC[C@H](Cn3cc4c(F)cc(C#N)cc4n3)CC2)c1 [compound 34, trans-2-((4-((S)-3-(3-cyano-5-fluorophenyl)isoxazolidine-2-carbonyl)cyclohexyl)methyl)-4-fluoro-2H-indazole-6-carbonitrile] | 69 | 37
23 | Cc1ccc(C[C@H]2CC[C@H](C(=O)N3OCC[C@H]3c3cc(F)cc(F)c3)CC2)nn1 [compound 304, trans-[(3S)-3-(3,5-difluorophenyl)isoxazolidin-2-yl]-[4-[(6-methylpyridazin-3-yl)methyl]cyclohexyl]methanone] | 33 | 23
24 | N#Cc1ccc2cn(C[C@H]3CC[C@H](C(=O)N4OCC[C@H]4c4cnccn4)CC3)nc2c1 [compound 196, trans-2-[[4-[(3S)-3-pyrazin-2-ylisoxazolidine-2-carbonyl]cyclohexyl]methyl]indazole-6-carbonitrile] | 379 | 75
25 | Cc1nc([C@@H]2CCON2C(=O)[C@H]2CC[C@H](Cn3ncc4ccc(C(N)=O)cc43)CC2)cs1 [Compound 234, trans-1-[[4-[(3S)-3-(2-methylthiazol-4-yl)isoxazolidine-2-carbonyl]cyclohexyl]methyl]indazole-6-carboxamide] | 126 | 49
26 | Cc1cc(C)n(-c2cc(C[C@H]3CC[C@H](C(=O)N4OCC[C@H]4c4cc(F)cc(C#N)c4)CC3)ncn2)n1 [compound 124, trans-3-[(3S)-2-[4-[[6-(3,5-dimethylpyrazol-1-yl)pyrimidin-4-yl]methyl]cyclohexanecarbonyl]isoxazolidin-3-yl]-5-fluoro-benzonitrile] | 68 | 26
